# Experimental data: patent publication US20110152275A1, “AGENT FOR MAINTENANCE OF INDUCED REMISSION” (priority 2008, published 2011)
# System: rat adjuvant-induced arthritis model
# Assay: Rat adjuvant-induced arthritis model
# Assay type: in vivo
# Conditions: for infiltration of inflammatory cells into the joint after switching from MTX: MTX 0th to 10th day then Compound 1 1 mg/kg to 24th day; for overall effect on the arthritis (summary): summary of leg volume results, injected and non-injected legs
# Protocol: There were intracutaneously injected 0.05 mL (0.6 mg/animal) each of a suspension of killed M. butyricum (12 mg/mL) in liquid paraffin into the back of the right hind legs of 8-week-old female rats of LEW/CrlCrlj line (available from Japan Charles-River Co., Ltd.) to thus induce the arthritis (the 0th day). Then 0.5 mL (per body weight of 100 g) each of an agent solution prepared using a 0.5% methyl cellulose (0.5% MC) was orally administered to each of the test animals. To the adjuvant-injected control animal group, there was administered only the 0.5% MC. Methotrexate (MTX, available from Sigma Company) (0.1 mg/kg) was administered to each test animal, once a day, during the term extending from the 0th day to the 10th day, every day. On or after the 11th day, (R)-2-amino-5-[2-chloro-4-(3-trifluoro methylphenylthio)phenyl]-2-methyl-1-pentanol hydrochloride (hereunder simply referred to as “Compound 1”) (1 mg/kg) was administered to the test animals, instead of methotrexate, once a day up to the 24th day every day. The evaluation of the arthritis was carried out according to the following procedures: The volumes of the right and left hind legs of each test animal were determined on the 0th, 8th, 11th, 14th, 18th, 21st and 25th days of the testing period using a volume-determining meter (MK-550 available from Muromachi Machine, Co., Ltd.) and then the rate of increase in the volume of the hind leg was determined for each of the right and left hind legs of each individual test animal. Then there was prepared a pathological specimen (stained with hematoxylin eosin) of a joint extending from the distal end of the shinbone to the tarsalia to evaluate the degree of the infiltration of inflammatory cells into the joint.
# In case of the adjuvant-induced arthritis, acute inflammation, whose far advanced stage is observed on around 3rd day, is recognized on the adjuvant-injected leg and thereafter it is once degenerated. Then the systemic inflammation due to the systemic immunological abnormality is initiated on about 10th day and as a result, the onset of arthritis is observed on the non-injected leg in parallel with the injected leg.
# [1] = adjuvant-injected leg, MTX 0.1 mg/kg orally once a day, 0th to 10th day, observed 8th to 11th day, FIG. 1
SMILES,"progress of the arthritis after switching from MTX (adjuvant-injected leg, MTX 0.1 mg/kg 0th to 10th day, then Compound 1 1 mg/kg orally once a day 11th to 24th day, FIG. 1)","infiltration of inflammatory cells into the joint after switching from MTX (injected leg, pathological specimen, observed 25th day, FIG. 3E)","onset of the arthritis after switching from MTX (non-injected leg, MTX 0.1 mg/kg 0th to 10th day, then Compound 1 1 mg/kg orally once a day 11th to 24th day, FIG. 2)","infiltration of inflammatory cells into the joint after switching from MTX (non-injected legs, pathological specimen)",overall effect on the arthritis (summary),"symptom of arthritis after stopping administration (adjuvant-injected leg, MTX 0th to 10th day, discontinued on and after 11th day, FIG. 1)",increase in the volume of the leg [1],progress of the arthritis [1],"infiltration of inflammatory cells into the joint (injected leg, pathological specimen (hematoxylin eosin), MTX 0th to 10th day, observed 11th day, FIG. 3B)","infiltration of inflammatory cells into the joint after stopping administration (injected leg, pathological specimen, MTX 0th to 10th day then stopped, observed 25th day, FIG. 3D)","arthritis after stopping administration (non-injected leg, MTX 0th to 10th day, discontinued on and after 11th day, FIG. 2)","onset of the arthritis (non-injected leg, MTX 0.1 mg/kg orally 0th to 10th day, at the 11th day, FIG. 2)"
"C[C@](N)(CO)CCCc1ccc(Sc2cccc(C(F)(F)F)c2)cc1Cl.Cl [Compound 1, (R)-2-amino-5-[2-chloro-4-(3-trifluoromethylphenylthio)phenyl]-2-methyl-1-pentanol hydrochloride]",the progress of the arthritis was inhibited,any infiltration of inflammatory cells into the joint was suppressed,the onset of the arthritis was suppressed,any infiltration of inflammatory cells into the joint was found to be suppressed,could maintain the MTX-suppressed condition of the symptom of the arthritis,–,–,–,–,–,–,–
"CN(Cc1cnc2nc(N)nc(N)c2n1)c1ccc(C(=O)N[C@@H](CCC(=O)O)C(=O)O)cc1 [MTX, Methotrexate]",–,–,–,–,"could suppress the onset and progress of arthritis, but the arthritis was immediately advanced when stopping the administration thereof",the symptom of arthritis was again advanced,there was not observed any increase in the volume of the leg,the progress of the arthritis was found to be inhibited,any infiltration of inflammatory cells into the joint was suppressed,the conspicuous infiltration of inflammatory cells into the joint was recognized,the arthritis was initiated when stopping the administration of MTX,the onset of the arthritis in the non-injected leg was suppressed
